Test results reported in patent US4119717A, “16-S-acyl derivatives of fusidic acid” (Leo Pharmaceutical Products Ltd. A/S Lovens Kemiske Fabrik, priority 1976, dated 1978).
In brackets after ≈: the same amount, converted by molar mass.

Legend:
Experiment in all cases: Antibacterial activity, concentration required for 50% inhibition
Assay type in all cases: cell-based
[1] = tested on: Bacteroides fragilis Leo JA 2; settings: LEOJA2
From the text: (§1) Now, however, it has been found, that the compounds of the present invention both in vitro and in vivo show interesting antimicrobial and pharmacokinetic properties. Thereby the compounds of the invention can be used in the treatment of bacterial infections in humans and animals.

[2] = tested on: Staph.aureus Leo CC 178 A; settings: Staphylococcus aureus, LEOCC178A
From the text: as §1

[3] = tested on: Staph.aureus Leo CC 178 B; settings: Staphylococcus aureus, LEOCC178B
From the text: as §1

Strep.pyogenes Leo EC = settings: Streptococcus pyogenes
From the text: as §1

Strep.sp. Leo EG 2 = tested on: Strep.sp. Leo EG 2
From the text: as §1

| SMILES | IC50 [1] | IC50 [2] | IC50 [3] | IC50 (Strep.pyogenes Leo EC) | IC50 (Strep.sp. Leo EG 2) |
| --- | --- | --- | --- | --- | --- |
| CC(C)CCC/C(C(=O)O)=C1/[C@@H](SC(=O)c2ccccc2)C[C@@]2(C)[C@H]1C[C@@H](O)[C@H]1[C@@]3(C)CC[C@@H](O)[C@@H](C)[C@@H]3CC[C@@]12C [Example 4, 16-Deacetoxy-16β-benzoylthio-24,25-dihydrofusidic acid] | 1.6 mg/L (≈ 2.68 µM) | 1.6 mg/L (≈ 2.68 µM) | 0.5 mg/L (≈ 0.838 µM) | 0.2 mg/L (≈ 0.335 µM) | 0.63 mg/L (≈ 1.06 µM) |
| CC(=O)S[C@H]1C[C@@]2(C)[C@@H](C[C@@H](O)[C@H]3[C@@]4(C)CC[C@H](Br)[C@@H](C)[C@@H]4CC[C@@]32C)/C1=C(\CCCC(C)C)C(=O)O [Example 22, 3-deoxy-3β-bromo-16-deacetoxy-16β-acetylthio-24,25-dihydrofusidic acid] | 2 mg/L (≈ 3.35 µM) | 1.6 mg/L (≈ 2.68 µM) | 0.079 mg/L (≈ 0.132 µM) | 0.79 mg/L (≈ 1.32 µM) | 1.6 mg/L (≈ 2.68 µM) |
| CC(=O)S[C@H]1C[C@@]2(C)[C@@H](CC(=O)[C@H]3[C@@]4(C)CC[C@@H](O)[C@@H](C)[C@@H]4CC[C@@]32C)/C1=C(\CCC=C(C)C)C(=O)O [Example 7, 11-keto-16-deacetoxy-16β-(acetylthio)fusidic acid] | 2 mg/L (≈ 3.77 µM) | 20 mg/L (≈ 37.7 µM) | 0.02 mg/L (≈ 0.0377 µM) | 1 mg/L (≈ 1.88 µM) | 2 mg/L (≈ 3.77 µM) |
| CC(=O)S[C@H]1C[C@@]2(C)[C@@H](C[C@@H](O)[C@H]3[C@@]4(C)CC[C@@H](O)[C@@H](C)[C@@H]4CC[C@@]32C)/C1=C(\CCC=C(C)C)C(=O)O [Example 1, 16-Deacetoxy-16β-(acetylthio)fusidic acid] | 0.79 mg/L (≈ 1.48 µM) | 6.3 mg/L (≈ 11.8 µM) | 0.01 mg/L (≈ 0.0188 µM) | 0.2 mg/L (≈ 0.375 µM) | 0.2 mg/L (≈ 0.375 µM) |
| CC(=O)S[C@H]1C[C@@]2(C)[C@@H](C[C@@H](O)[C@H]3[C@@]4(C)CC[C@H](Cl)[C@@H](C)[C@@H]4CC[C@@]32C)/C1=C(\CCC=C(C)C)C(=O)O [Example 29] | 1.3 mg/L (≈ 2.36 µM) | 2 mg/L (≈ 3.63 µM) | 0.5 mg/L (≈ 0.907 µM) | 0.63 mg/L (≈ 1.14 µM) | 1.6 mg/L (≈ 2.9 µM) |
| CC(=O)S[C@H]1C[C@@]2(C)[C@@H](CC(=O)[C@H]3[C@@]4(C)CC[C@@H](O)[C@@H](C)[C@@H]4CC[C@@]32C)/C1=C(\CCCC(C)C)C(=O)O [Example 8] | 2 mg/L (≈ 3.75 µM) | 16 mg/L (≈ 30 µM) | 0.02 mg/L (≈ 0.0375 µM) | 1 mg/L (≈ 1.88 µM) | 2 mg/L (≈ 3.75 µM) |
| CC(=O)O[C@H]1C[C@@]2(C)[C@@H](C[C@@H](O)[C@H]3[C@@]4(C)CC[C@@H](O)[C@@H](C)[C@@H]4CC[C@@]32C)/C1=C(\CCC=C(C)C)C(=O)O [Fusidic acid] | 1.6 mg/L (≈ 3.1 µM) | 16 mg/L (≈ 31 µM) | 0.025 mg/L (≈ 0.0484 µM) | 0.63 mg/L (≈ 1.22 µM) | 1.6 mg/L (≈ 3.1 µM) |
| CC(=O)S[C@H]1C[C@@]2(C)[C@@H](C[C@@H](O)[C@H]3[C@@]4(C)CC[C@H](Br)[C@@H](C)[C@@H]4CC[C@@]32C)/C1=C(\CCC=C(C)C)C(=O)O [Example 21, 3-Deoxy-3β-bromo-16-deacetoxy-16β-(acetylthio)fusidic acid] | 3.2 mg/L (≈ 5.37 µM) | 4 mg/L (≈ 6.71 µM) | 0.13 mg/L (≈ 0.218 µM) | 0.32 mg/L (≈ 0.537 µM) | 1 mg/L (≈ 1.68 µM) |
| CC(=O)S[C@H]1C[C@@]2(C)[C@@H](C[C@@H](O)[C@H]3[C@@]4(C)CC[C@@H](N=[N+]=[N-])[C@@H](C)[C@@H]4CC[C@@]32C)/C1=C(\CCCC(C)C)C(=O)O [Example 36, 3-Deoxy-3α-azido-16-deacetoxy-16β-acetylthio-24,25-dihydrofusidic acid] | 5 mg/L (≈ 8.93 µM) | 5 mg/L (≈ 8.93 µM) | 0.063 mg/L (≈ 0.113 µM) | 0.4 mg/L (≈ 0.715 µM) | 2 mg/L (≈ 3.57 µM) |
| CC(=O)S[C@H]1C[C@@]2(C)[C@@H](C[C@@H](O)[C@H]3[C@@]4(C)CC[C@H](N=[N+]=[N-])[C@@H](C)[C@@H]4CC[C@@]32C)/C1=C(\CCCC(C)C)C(=O)O [Example 28] | 1.6 mg/L (≈ 2.86 µM) | 2 mg/L (≈ 3.57 µM) | 1.6 mg/L (≈ 2.86 µM) | 0.63 mg/L (≈ 1.13 µM) | 0.63 mg/L (≈ 1.13 µM) |
| CC(=O)S[C@H]1C[C@@]2(C)[C@@H](C[C@@H](O)[C@H]3[C@@]4(C)CC[C@@H](O)[C@@H](C)[C@@H]4CC[C@@]32C)/C1=C(\CCCC(C)C)C(=O)O [Example 3, 16-Deacetoxy-16β-acetylthio-24,25-dihydrofusidic acid] | 0.5 mg/L (≈ 0.935 µM) | 3.2 mg/L (≈ 5.98 µM) | 0.008 mg/L (≈ 0.015 µM) | 0.16 mg/L (≈ 0.299 µM) | 0.25 mg/L (≈ 0.467 µM) |
